Key:
Salmonella = Salmonella positive samples, simulated USDA HACCP detection (Example 7); format: cell-based, Salmonella enteritidis; conditions: 20 ppm (Cl2 equivalent) during chilling; for Salmonella positive samples (Number 51): birds inoculated with Salmonella prior to chilling, control 21/51; for Salmonella positive samples (%): control 41.18%
Text: After normal processing of 56-day-old birds, carcasses were immersed first in a warm bath containing 10^4 per mL Escherichia coli, 10^4 per mL Salmonella enteritidis, 10^4 per mL Pseudomonas aeruginosa, 10^4 per mL Campylobacter jejuni, and 10^4 per mL spoilage bacteria each from two strains (Listeria monocytogenes and Shigella sonnei). Carcasses were then immersed in a chill tank “soup”, containing normal organic fluids (blood, fat, skin, and meat particles) and containing various disinfectants (termed test materials). These whole bird bacteria count tests were conducted at pH 8. The effect of the test compounds on skin pigmentation was determined by use of Minolta Color Meter L value or Lightness, a value or redness and b value or yellowness. Post-chilling skin bacteria of various strains were determined over a 20-day period. Spoilage, using sensory odors as a model, determined time required to create a putrid/ammonia-like odor. After salmonella infection in chill tanks, USDA HACCP salmonella detection was simulated and reported.
DBDMH and BCDMH stock solutions and diluted test solutions (20 ppm Cl2 equivalent), a bacteria stock solution, and a “chicken soup” were prepared as in Example 3 except that the Stabrom® 909 biocide concentrate was diluted by adding 30 mL per liter of water just prior to application. This diluted solution was sprayed on the birds, both inside and outside, in quantities of 200 mL per bird. In addition, the bacterial broth treatments, the whole bird wash sampling procedure, and the methodologies used for quantitative or qualitative determinations for bacterial organisms were conducted as in Example 3.
The details concerning the trial events used as well as the detailed experimental design used in these tests were the same as described in Example 6. The only exceptions were: • a) In the case of the birds of Test Group 5 (note Table 38), while the carcass was still warm, the 10 birds were each sprayed both internally and externally, using a misting hand-held nozzle, with 200 mL of the 3% solution of Stabrom 909 biocide (SSBC). […] The spray was allowed to stay on the warm carcasses for 60 seconds. • b) The treatment on sampling day 0 of 102 total of the remaining 110 carcasses from each treatment involving “whole bird” washing and Salmonella detection, all as described in Example 6, was applied only to the birds of Test Groups 1-4 (note Table 38).

Escherichia coli = experiment: AOAC test method, kill of bacterial culture; format: cell-based; conditions: for concentration required to achieve complete kill within 30 seconds: Escherichia coli, AOAC test
Description: (§1) One such series of tests involved determinations of microbiological control against Escherichia coli bacteria. Another set of tests involved determinations of microbiological control against Enterococcus faecium. In each case, comparative tests were carried out in the same manner utilizing the AOAC test method. Such test involves exposing a culture of the microorganism to various concentrations of a test solution prepared from an aqueous stock solution of the compound under test. At various time intervals the halogen in the test suspensions is chemically neutralized, and the amount of viable bacteria remaining is enumerated by plating onto nutrient agar and incubating for 2 days at 37° C. Results are expressed at the log10 colony forming units (CFU). The concentration of the compound required to achieve complete kill (i.e., no viable bacteria remain) within 30 seconds is determined in the test.
Table 43 summarizes the data obtained in the tests using respectively, 1,3-dibromo-5,5-dimethylhydantoin (DBDMH) and N,N′-bromochloro-5,5-dimethylhydantoin (BCDMH) and in which the microorganism in each case was Escherichia coli. It can be seen that 1,3-dibromo-5,5-dimethylhydantoin passed the test at one milligram of bromine, as […] per liter of water, as evidenced by the complete kill within 30 seconds, whereas 1,3-bromochloro-5,5-dimethylhydantoin required two milligrams of bromine, as Br2, per liter of water to achieve complete kill within 30 seconds.

Enterococcus faecium = experiment: AOAC test method, kill of bacterial culture; format: cell-based; conditions: for concentration required to achieve complete kill within 30 seconds: Enterococcus faecium, AOAC test
Description: as §1
Table 44 summarizes the data obtained in the tests using respectively 1,3-dibromo-5,5-dimethylhydantoin (DBDMH) and N,N-bromochloro-5,5-dimethylhydantoin (BCDMH) and in which the microorganism in each case was Enterococcus faecium.

[1] = format: physicochemical
Text: Another mode of applying the microbiocidally-effective amounts of solid-state microbiocides of these embodiments of the invention is to cause the microbiocide to be leached into water streams passing through conduits and into tanks or other washing devices utilized in the processing of the poultry. For example, suitable solid forms of the microbiocide, preferably a bromine-based microbiocide, such as tablets, briquettes, pellets, nuggets, or granules are placed in suitable feeding devices through which a stream of water is passed. The passage of the water through the bed of the microbiocide results in the stream continuously dissolving small quantities of the microbiocide to thereby provide microbiocidally effective amounts of the microbiocide in the water. 1,3-Dibromo-5,5-dimethylhydantoin is especially preferred for use in this mode of application because of its relatively low solubility and thus relatively slow rate of dissolution in water at ambient room temperatures. This translates into relatively long periods of use before need of refilling the device holding the solids.

[2] = 0.5 mg/L as Br2, contact time 30 sec
[3] = 0.5 mg/L as Br2, contact time 1 min
[4] = 0.5 mg/L as Br2, contact time 2 min
[5] = 0.5 mg/L as Br2, contact time 3 min
[6] = 0.5 mg/L as Br2, contact time 4 min
[7] = 0.5 mg/L as Br2, contact time 5 min
[8] = 0.5 mg/L as Br2, contact time 10 min
[9] = 1.0 mg/L as Br2, contact time 30 sec
[10] = 1.0 mg/L as Br2, contact time 1 min
[11] = 1.0 mg/L as Br2, contact time 2 min
[12] = 1.0 mg/L as Br2, contact time 3 min
[13] = 1.0 mg/L as Br2, contact time 4 min
[14] = 1.0 mg/L as Br2, contact time 5 min
[15] = 1.0 mg/L as Br2, contact time 10 min
[16] = 2.0 mg/L as Br2, contact time 30 sec
[17] = 2.0 mg/L as Br2, contact time 1 min
[18] = 2.0 mg/L as Br2, contact time 2 min
[19] = 2.0 mg/L as Br2, contact time 3 min
[20] = 2.0 mg/L as Br2, contact time 4 min
[21] = 2.0 mg/L as Br2, contact time 5 min
[22] = 2.0 mg/L as Br2, contact time 10 min

Compound: CC1(C)C(=O)N(Cl)C(=O)N1Br [BCDMH, N,N′-bromochloro-5,5-dimethylhydantoin]
- Salmonella positive samples (Number 51) (Salmonella): 6/51
- Salmonella positive samples (%) (Salmonella): 11.76%
- Log10 CFU Recovered (Escherichia coli; [2]): >4.48 Log10 CFU
- Log10 CFU Recovered (Escherichia coli; [3]): 4.46 Log10 CFU
- Log10 CFU Recovered (Escherichia coli; [4]): 1.65 Log10 CFU
- Log10 CFU Recovered (Escherichia coli; [5]): 0 Log10 CFU
- Log10 CFU Recovered (Escherichia coli; [6]): 0 Log10 CFU
- Log10 CFU Recovered (Escherichia coli; [7]): 0 Log10 CFU
- Log10 CFU Recovered (Escherichia coli; [8]): 0 Log10 CFU
- Log10 CFU Recovered (Escherichia coli; [9]): >4.48 Log10 CFU
- Log10 CFU Recovered (Escherichia coli; [10]): 0.7 Log10 CFU
- Log10 CFU Recovered (Escherichia coli; [11]): 0 Log10 CFU
- Log10 CFU Recovered (Escherichia coli; [12]): 0 Log10 CFU
- Log10 CFU Recovered (Escherichia coli; [13]): 0 Log10 CFU
- Log10 CFU Recovered (Escherichia coli; [14]): 0 Log10 CFU
- Log10 CFU Recovered (Escherichia coli; [15]): 0 Log10 CFU
- Log10 CFU Recovered (Escherichia coli; [16]): 0 Log10 CFU
- Log10 CFU Recovered (Escherichia coli; [17]): 0 Log10 CFU
- Log10 CFU Recovered (Escherichia coli; [18]): 0 Log10 CFU
- Log10 CFU Recovered (Escherichia coli; [19]): 0 Log10 CFU
- Log10 CFU Recovered (Escherichia coli; [20]): 0 Log10 CFU
- Log10 CFU Recovered (Escherichia coli; [21]): 0 Log10 CFU
- Log10 CFU Recovered (Escherichia coli; [22]): 0 Log10 CFU
- concentration required to achieve complete kill within 30 seconds (Escherichia coli): two
- Log10 CFU Recovered (Enterococcus faecium; [2]): >4.48 Log10 CFU
- Log10 CFU Recovered (Enterococcus faecium; [3]): 3.53 Log10 CFU
- Log10 CFU Recovered (Enterococcus faecium; [4]): 2.63 Log10 CFU
- Log10 CFU Recovered (Enterococcus faecium; [5]): 0.00 Log10 CFU
- Log10 CFU Recovered (Enterococcus faecium; [6]): 0.00 Log10 CFU
- Log10 CFU Recovered (Enterococcus faecium; [7]): 0.00 Log10 CFU
- Log10 CFU Recovered (Enterococcus faecium; [8]): 0.00 Log10 CFU
- Log10 CFU Recovered (Enterococcus faecium; [9]): >4.48 Log10 CFU
- Log10 CFU Recovered (Enterococcus faecium; [10]): 2.38 Log10 CFU
- Log10 CFU Recovered (Enterococcus faecium; [11]): 0.00 Log10 CFU
- Log10 CFU Recovered (Enterococcus faecium; [12]): 0.00 Log10 CFU
- Log10 CFU Recovered (Enterococcus faecium; [13]): 0.00 Log10 CFU
- Log10 CFU Recovered (Enterococcus faecium; [14]): 0.00 Log10 CFU
- Log10 CFU Recovered (Enterococcus faecium; [15]): 0.00 Log10 CFU
- Log10 CFU Recovered (Enterococcus faecium; [16]): 0.00 Log10 CFU
- Log10 CFU Recovered (Enterococcus faecium; [17]): 0.00 Log10 CFU
- Log10 CFU Recovered (Enterococcus faecium; [18]): 0.00 Log10 CFU
- Log10 CFU Recovered (Enterococcus faecium; [19]): 0.00 Log10 CFU
- Log10 CFU Recovered (Enterococcus faecium; [20]): 0.00 Log10 CFU
- Log10 CFU Recovered (Enterococcus faecium; [21]): 0.00 Log10 CFU
- Log10 CFU Recovered (Enterococcus faecium; [22]): 0.00 Log10 CFU
- concentration required to achieve complete kill within 30 seconds (Enterococcus faecium): two
- solubility in water [1]: 890 ppm expressed as Cl2

Compound: CC1(C)C(=O)N(Br)C(=O)N1Br [DBDMH, 1,3-dibromo-5,5-dimethylhydantoin]
- Salmonella positive samples (Number 51) (Salmonella): 1/51
- Salmonella positive samples (%) (Salmonella): 1.96%
- Log10 CFU Recovered (Escherichia coli; [2]): >4.48 Log10 CFU
- Log10 CFU Recovered (Escherichia coli; [3]): 1.70 Log10 CFU
- Log10 CFU Recovered (Escherichia coli; [4]): 0 Log10 CFU
- Log10 CFU Recovered (Escherichia coli; [5]): 0 Log10 CFU
- Log10 CFU Recovered (Escherichia coli; [6]): 0 Log10 CFU
- Log10 CFU Recovered (Escherichia coli; [7]): 0 Log10 CFU
- Log10 CFU Recovered (Escherichia coli; [8]): 0 Log10 CFU
- Log10 CFU Recovered (Escherichia coli; [9]): 0 Log10 CFU
- Log10 CFU Recovered (Escherichia coli; [10]): 0 Log10 CFU
- Log10 CFU Recovered (Escherichia coli; [11]): 0 Log10 CFU
- Log10 CFU Recovered (Escherichia coli; [12]): 0 Log10 CFU
- Log10 CFU Recovered (Escherichia coli; [13]): 0 Log10 CFU
- Log10 CFU Recovered (Escherichia coli; [14]): 0 Log10 CFU
- Log10 CFU Recovered (Escherichia coli; [15]): 0 Log10 CFU
- Log10 CFU Recovered (Escherichia coli; [16]): 0 Log10 CFU
- Log10 CFU Recovered (Escherichia coli; [17]): 0 Log10 CFU
- Log10 CFU Recovered (Escherichia coli; [18]): 0 Log10 CFU
- Log10 CFU Recovered (Escherichia coli; [19]): 0 Log10 CFU
- Log10 CFU Recovered (Escherichia coli; [20]): 0 Log10 CFU
- Log10 CFU Recovered (Escherichia coli; [21]): 0 Log10 CFU
- Log10 CFU Recovered (Escherichia coli; [22]): 0 Log10 CFU
- concentration required to achieve complete kill within 30 seconds (Escherichia coli): one
- Log10 CFU Recovered (Enterococcus faecium; [2]): 4.32 Log10 CFU
- Log10 CFU Recovered (Enterococcus faecium; [3]): 2.36 Log10 CFU
- Log10 CFU Recovered (Enterococcus faecium; [4]): 0.00 Log10 CFU
- Log10 CFU Recovered (Enterococcus faecium; [5]): 0.00 Log10 CFU
- Log10 CFU Recovered (Enterococcus faecium; [6]): 0.00 Log10 CFU
- Log10 CFU Recovered (Enterococcus faecium; [7]): 0.00 Log10 CFU
- Log10 CFU Recovered (Enterococcus faecium; [8]): 0.00 Log10 CFU
- Log10 CFU Recovered (Enterococcus faecium; [9]): 0.00 Log10 CFU
- Log10 CFU Recovered (Enterococcus faecium; [10]): 0.00 Log10 CFU
- Log10 CFU Recovered (Enterococcus faecium; [11]): 0.00 Log10 CFU
- Log10 CFU Recovered (Enterococcus faecium; [12]): 0.00 Log10 CFU
- Log10 CFU Recovered (Enterococcus faecium; [13]): 0.00 Log10 CFU
- Log10 CFU Recovered (Enterococcus faecium; [14]): 0.00 Log10 CFU
- Log10 CFU Recovered (Enterococcus faecium; [15]): 0.00 Log10 CFU
- Log10 CFU Recovered (Enterococcus faecium; [16]): 0.00 Log10 CFU
- Log10 CFU Recovered (Enterococcus faecium; [17]): 0.00 Log10 CFU
- Log10 CFU Recovered (Enterococcus faecium; [18]): 0.00 Log10 CFU
- Log10 CFU Recovered (Enterococcus faecium; [19]): 0.00 Log10 CFU
- Log10 CFU Recovered (Enterococcus faecium; [20]): 0.00 Log10 CFU
- Log10 CFU Recovered (Enterococcus faecium; [21]): 0.00 Log10 CFU
- Log10 CFU Recovered (Enterococcus faecium; [22]): 0.00 Log10 CFU
- concentration required to achieve complete kill within 30 seconds (Enterococcus faecium): one
- solubility in water [1]: 405 ppm expressed as Cl2
